Experimental data from US6884776B1, “Antimicrobial peptides derived from ubiquicidine” (priority 1997, dated 2005).
Where no end group is shown, it is not given here.

How the values were obtained:
micro-organisms = assay: growth-killing test / in vitro antimicrobial action (IC 99%); format: cell-based
Text: Peptide fragments derived from ubiquicidine comprise a preferably continuous series of at least 3, preferably at least 8 amino acids from the amino acid sequence of ubiquicidine as shown in FIG. 1. For an average skilled person it is simple to ascertain whether a peptide fragment with a series of preferably continuous amino acids chosen from the amino acid sequence of ubiquicidine does actually have antimicrobial activity and thus meets the requirements of the invention. A simple standard test for determining antimicrobial activity is for instance the universally known growth-killing test, i.e. determining of the concentration of an antimicrobial agent which kills 99% of the micro-organisms (IC 99%). Designated by “peptide (fragments)” in this application are therefore all amino acid chains which are smaller than the ubiquicidine itself, but the amino acid sequence of which is to be found, preferably continuously, in the ubiquicidine. The length of such peptide (fragments) can vary from 3 to 58 amino acids, wherein possible extra amino acids added as modification are not included.
(§1) Different techniques were used to test for the antimicrobial activity of ubiquicidine and peptides derived therefrom.

Klebsiella pneumoniae = assay: growth-killing curve determination, 60 minutes at 37° C., CFU; format: cell-based
Method: as §1
(§2) In the control incubations the bacteria multiplied a number of times (not shown).
(§3) Peptides were prepared using an Abimed AMS multiple peptide synthesizer and a fixed phase (tentagel AC, a polymer of polyethylene glycol spacer linked to a polystyrene matrix) (de Koster et al. (1995) J. Immunol. Methods 187:179-188). After completion of the synthesis the peptide was released from the fixed phase using a trifluoroacetic acid water(19:1) mixture and the peptides were subsequently precipitated with an ether pentane(1:1) mixture at […]. After centrifugation the obtained pep-tides were dried at 40° C. for 15 minutes. The peptides were subsequently dissolved in 10% acetic acid and concentrated by means of vacuum centrifugation. The purity of the peptides was determined using HPLC. The antimicrobial activity of these peptide fragments was determined as described in Example 1 under 2.3.

Staphylococcus aureus = assay: as above; format: cell-based
Method: as §1, §2, §3

[1] = parameters: species or system mice; details: mouse, in vivo
Method: Reference is made to FIG. 11 for a schematic view of the experimental infection and treatment of the mice. In summary, mice-were infected intramuscularly in the right thigh muscle with about 10^6 bacteria and after 5 minutes injected intraperitoneally with about 25 μg (labelled) peptide. At different points in time after injection of the peptide the animals were killed and the right thigh muscle was removed, homogenized, and finally the number of bacteria in the homogenate was determined using microbiological plate techniques, or accumulation of the labelled peptide was determined by means of a γ-camera. This test involved animals which were normal and immunocompromised (injection with cyclophosphamide, “total body” radiation).
(§4) Mice were infected in the right thigh muscle with Klebsiella pneumoniae and 25 μg ^99mTc-labelled ubiquicidine (1-18) or ubiquicidine (18-35) was subsequently injected intraperitoneally. At different points in time after injection of the peptide the amount of activity in the right (test) and left (control) thigh muscle of the mouse was measured using a γ-camera. The results are shown in FIG. 12 as a ratio of the values in the right thigh muscle and the left thigh muscle, i.e. “target to non-target ratio”. For the purpose of comparison the results for human defensin and IgG are also shown. The target to non-target ratios for infections and sterile inflammations were also compared (FIG. 13).

[2] = in vivo; cited from earlier work
[3] = localization of 99mTc-labelled peptides with γ-camera in mice infected with Staphylococcus aureus or with sterile inflammations; format: in vivo; details: target to non-target ratios, FIG. 13
Method: Mice were infected intramuscularly with about 10^6 Staphylococcus aureus bacteria (ATCC 25923) and subsequently injected intraperitoneally with 25 μg ^99mTc-peptide. Mice were also injected intramuscularly with about 1×10^8 heat-killed (1 hour, 100° C.)S. aureus, 1 μg endotoxin or 100 ng phorbol myristate acetate (PMA) in order to cause sterile inflammations. At different points in time after injection of the peptide the radioactivity was measured in the circulation (heart), determined organs (liver, kidney, bladder and spleen) and in both thigh muscles using a γ-camera.
as §4

With “ubiquicidine (29-41): synthetic peptide fragment of ubiquicidine, amino acids 29-41, sequence in FIG. 1 (TGRAKRRMQYNRR; Small ribosomal subunit protein eS30; UniProt P62861 103-115, looked up, fragment)” the “IC 99% (concentration which kills 99% of the micro-organisms)” value (micro-organisms) was “around 1 μM”, the “antimicrobial activity of peptide fragments” value (Klebsiella pneumoniae) was “demonstrated antimicrobial activity” and the “antimicrobial activity of peptide fragments” value (Staphylococcus aureus) was “demonstrated antimicrobial activity”.
For “KVHGSLARAGKVRGQTPK [ubiquicidine (1-18)]”, the “accumulation in the infected thigh muscle” value [1] was “accumulate rapidly”.
In the case of “^99Tc-ubiquicidine (1-18): ubiquicidine (1-18) labelled with technetium 99m (KVHGSLARAGKVRGQTPK; also: labelled with 99mTc, site not given here; UniProt P62861 75-92, looked up, fragment)”, the “time to maximum accumulation compared with IgG” value [1] is reported as “much sooner than ^99Tc-IgG”.
In the case of “KVAKQEKKKKKTGRAKRR [ubiquicidine (18-35)]”, the “accumulation in the infected thigh muscle” value [1] is reported as “accumulate rapidly”.
In the case of `[67Ga]` [gallium 67], the “time needed for accumulation” value [2] is listed as “at least 24 hours”.
In the case of “99mTc-labelled ubiquicidine 18-35: MAG3-derived ubiquicidine (18-35) labelled with the emitter 99mTc (hybrid molecule) (KVAKQEKKKKKTGRAKRR; also: MAG3 chelator conjugated, site not given here, 99mTc label; UniProt P62861 92-109, looked up, fragment)”, the “accumulation in infection versus sterile inflammations” value [3] is reported as “in a nidus but not in inflammations” and the “time to maximum accumulation compared with IgG” value [1] is reported as “much sooner than ^99Tc-IgG”.
